For series [1] the following is noted: in comparison to a 15 mg dose of hydrocodone. An excerpt: In certain preferred embodiments, the opioid agonist is oxycodone or hydrocodone.
For series [2] the following is noted: cited from earlier work; for Duration of action: after oral doses.

On to `COc1ccc2c3c1O[C@H]1[C@@H](O)C=C[C@H]4[C@@H](C2)N(C)CC[C@@]341` [Codeine], for which the “Equianalgesic dose, Calculated Dose” value in series [1] is given as 90.0 mg.

Take `COc1ccc2c3c1OC1C(=O)CC[C@H]4[C@@H](C2)N(C)CC[C@]314` (stereo partly shown) [Hydrocodone, 4,5-epoxy-3-methoxy-17-methylmorphinan-6-one]: the “Equianalgesic dose, Calculated Dose” value in series [1] is recorded as 15.0 mg.

As to `CN1CC[C@]23CCCC[C@H]2[C@H]1Cc1ccc(O)cc13` [Levorphanol], the “Equianalgesic dose, Calculated Dose” value in series [1] was 1.8 mg.

`CCC(=O)C(CC(C)N(C)C)(c1ccccc1)c1ccccc1` (stereo not shown) [Methadone]: the “Equianalgesic dose, Calculated Dose” value in series [1] is 9.0 mg.

Consider `COc1ccc2c3c1O[C@H]1C(=O)CC[C@@]4(O)[C@@H](C2)N(C)CC[C@]314` [Oxycodone, 4,5-expoxy-14-hydroxy-3-methoxy-17-methylmorphinan-6-one], for which the “Equianalgesic dose, Calculated Dose” value in series [1] is reported as 13.5 mg.

Take `C[C@H]1[C@H]2Cc3ccc(O)cc3[C@]1(C)CCN2CC1CC1` [cyclazocine]: the Duration of action in series [2] is approximately 24 h.

For the compound `O=C1CC[C@@]2(O)[C@H]3Cc4ccc(O)c5c4[C@@]2(CCN3CC2CC2)[C@H]1O5` [naltrexone], the Duration of action in series [2] is approximately 24 h. The Protein binding result in series [2] (in vivo) is “approximately 21%”. For the same compound, in series [2] (oral administration), the Oral bioavailability is recorded as 5-40% and the Time of absorption is not above 1 h.

(Values after patent publication US8758825B2, “Sequestered antagonist formulations” (Purdue Pharma L.P., priority 2001, dated 2014).)
